Reference: patent US20100048950A1 (BOEHRINGER INGELHEIM INTERNATIONAL GMBH, priority 2007, published 2010)

Target: T1, human glucocorticoid receptor (GR) complex (Homo sapiens, UniProt P04150)
T1 construct: made in house; host or cells: insect expression system (baculovirus lysate)
T1 sequence (P04150 1-777): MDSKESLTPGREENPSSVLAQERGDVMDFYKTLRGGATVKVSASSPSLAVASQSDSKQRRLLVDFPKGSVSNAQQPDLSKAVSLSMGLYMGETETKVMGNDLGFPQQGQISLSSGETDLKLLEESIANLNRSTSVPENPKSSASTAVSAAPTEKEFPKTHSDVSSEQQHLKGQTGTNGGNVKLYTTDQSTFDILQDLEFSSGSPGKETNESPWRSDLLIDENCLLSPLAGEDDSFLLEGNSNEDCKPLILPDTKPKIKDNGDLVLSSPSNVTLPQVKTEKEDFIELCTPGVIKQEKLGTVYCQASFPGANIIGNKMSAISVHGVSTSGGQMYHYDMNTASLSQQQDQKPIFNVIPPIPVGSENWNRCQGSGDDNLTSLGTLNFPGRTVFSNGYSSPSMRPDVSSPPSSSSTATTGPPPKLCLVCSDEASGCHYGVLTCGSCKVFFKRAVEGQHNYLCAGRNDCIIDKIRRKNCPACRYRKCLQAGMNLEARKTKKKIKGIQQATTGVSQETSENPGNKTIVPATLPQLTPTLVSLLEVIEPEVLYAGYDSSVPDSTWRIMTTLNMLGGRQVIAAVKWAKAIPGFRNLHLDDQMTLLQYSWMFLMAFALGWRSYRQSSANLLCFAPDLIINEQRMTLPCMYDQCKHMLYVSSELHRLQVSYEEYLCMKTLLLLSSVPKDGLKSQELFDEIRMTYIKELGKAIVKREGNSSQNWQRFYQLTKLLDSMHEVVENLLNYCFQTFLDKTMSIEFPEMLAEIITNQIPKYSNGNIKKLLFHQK
Experiment: Glucocorticoid receptor competitive binding assay (fluorescence polarization)
Settings: competition with TAMRA-labeled dexamethasone, read-out: potent activity (IC50) in the GR binding assay
Experimental: Compounds of the invention were evaluated for binding to the steroid receptor by a fluorescence polarization competitive binding assay. Detailed descriptions for preparation of recombinant glucocorticoid receptor (GR) complex used in the assay is described in U.S. Patent Application Publication No. US 2003/0017503, filed May 20, 2002, and incorporated herein by reference in its entirety. Preparation of the tetramethylrhodamine (TAMRA)-labeled dexamethasone probe was accomplished using a standard literature procedure (M. Pons et al., J. Steroid Biochem., 1985, 22, pp. 267-273).
The affinity of the probe for the steroid receptor was then determined in a titration experiment. The fluorescence polarization value of the probe in assay buffer was measured on an SLM-8100 fluorometer using the excitation and emission maximum values described above. Aliquots of expression vector lysate were added and fluorescence polarization was measured after each addition until no further change in polarization value was observed. Non-linear least squares regression analysis was used to calculate the dissociation constant of the probe from the polarization values obtained for lysate binding to the probe.
This assay uses fluorescence polarization (FP) to quantitate the ability of test compounds to compete with tetramethylrhodamine (TAMRA)-labeled dexamethasone for binding to a human glucocorticoid receptor (GR) complex prepared from an insect expression system. The assay buffer was: 10 mM TES, 50 mM KCl, 20 mM Na2MoO4.2H2O, 1.5 mM EDTA, 0.04% w/v CHAPS, 10% v/v glycerol, 1 mM dithiothreitol, pH 7.4. Test compounds were dissolved to 1 mM in neat DMSO and then further diluted to 10× assay concentration in assay buffer supplemented with 10% v/v DMSO. Test compounds were serially diluted at 10× assay concentrations in 10% DMSO-containing buffer in 96-well polypropylene plates. Binding reaction mixtures were prepared in 96-well black Dynex microtiter plates by sequential addition of the following assay components to each well: 15 μL of 10× test compound solution, 85 μL of GR-containing baculovirus lysate diluted 1:170 in assay buffer, and 50 μL of 15 nM TAMRA-labeled dexamethasone. Positive controls were reaction mixtures containing no test compound; negative controls (blanks) were reaction mixtures containing 0.7 μM to 2 μM dexamethasone. The binding reactions were incubated for 1 hour at room temperature and then read for fluorescence polarization in the LJL Analyst set to 550 nm excitation and 580 nm emission, with the Rhodamine 561 dichroic mirror installed. IC50 values were determined by iterative non-linear curve fitting of the FP signal data to a 4-parameter logistic equation.

Row | SMILES | IC50
1 | Cc1cc(C)c(S(=O)(=O)NC(COc2ccc(C(F)(F)F)cc2)C(F)(F)F)c(C)c1 (stereo not shown) [2,4,6-Trimethyl-N-[2,2,2-trifluoro-1-(4-trifluoromethylphenoxymethyl)ethyl]benzenesulfonamide] | ≤ 100 nM
2 | COC(=O)c1ccccc1N(C)CC(NS(=O)(=O)c1c(C)cc(C)cc1C)C(F)(F)F (stereo not shown) [2-{Methyl-[3,3,3-trifluoro-2-(2,4,6-trimethylbenzenesulfonylamino)propyl]amino}benzoic acid methyl ester] | ≤ 100 nM
3 | Cc1ccc(OCC(NS(=O)(=O)c2c(C)cc(C)cc2C)C(F)(F)F)c(C)c1 (stereo not shown) [N-[1-(2,4-Dimethylphenoxymethyl)-2,2,2-trifluoroethyl]-2,4,6-trimethylbenzenesulfonamide] | ≤ 100 nM
4 | Cc1cccc(NCC(NS(=O)(=O)c2c(C)cc(C)cc2C)C(F)(F)F)c1 (stereo not shown) [2,4,6-Trimethyl-N-[2,2,2-trifluoro-1-(m-tolylaminomethyl)ethyl]benzenesulfonamide] | ≤ 100 nM
5 | Cc1cc(C)c(S(=O)(=O)NC(COc2cccc3c2CCCC3=O)C(F)(F)F)c(C)c1 (stereo not shown) [2,4,6-Trimethyl-N-[2,2,2-trifluoro-1-(5-oxo-5,6,7,8-tetrahydronaphthalen-1-yloxymethyl)ethyl]benzenesulfonamide] | ≤ 100 nM
6 | Cc1cc(C)c(S(=O)(=O)NC(COc2cccc(C#N)c2)C(F)(F)F)c(C)c1 (stereo not shown) [N-[1-(3-Cyanophenoxymethyl)-2,2,2-trifluoroethyl]-2,4,6-trimethylbenzenesulfonamide] | ≤ 100 nM
7 | Cc1cc(C)c(S(=O)(=O)NC(CNc2cccc3c2CCCC3)C(F)(F)F)c(C)c1 (stereo not shown) [2,4,6-Trimethyl-N-{2,2,2-trifluoro-1-[(5,6,7,8-tetrahydronaphthalen-1-ylamino)methyl]ethyl}benzenesulfonamide] | ≤ 100 nM
8 | Cc1cc(C)c(S(=O)(=O)NC(CSc2c(C)cccc2Cl)C(F)(F)F)c(C)c1 (stereo not shown) [N-[1-(2-Chloro-6-methylphenylsulfanylmethyl)-2,2,2-trifluoroethyl]-2,4,6-trimethylbenzenesulfonamide] | ≤ 100 nM
9 | Cc1cc(C)c(S(=O)(=O)NC(CSc2ccc(Br)cc2OC(F)(F)F)C(F)(F)F)c(C)c1 (stereo not shown) [N-[1-(4-Bromo-2-trifluoromethoxyphenylsulfanylmethyl)-2,2,2-trifluoroethyl]-2,4,6-trimethylbenzenesulfonamide] | ≤ 100 nM
10 | Cc1cc(C)c(S(=O)(=O)NC(COc2ccc(C#N)cc2)C(F)(F)F)c(C)c1 (stereo not shown) [N-[1-(4-Cyanophenoxymethyl)-2,2,2-trifluoroethyl]-2,4,6-trimethylbenzenesulfonamide] | ≤ 100 nM

Continued, values first:

Row | IC50 | SMILES
11 | ≤ 100 nM | Cc1cc(C)c(S(=O)(=O)NC(CNc2ccc(C#N)cc2)C(F)(F)F)c(C)c1 (stereo not shown) [N-{1-[(4-Cyanophenylamino)methyl]-2,2,2-trifluoroethyl}-2,4,6-trimethylbenzenesulfonamide]
12 | ≤ 100 nM | Cc1cc(C)cc(NCC(NS(=O)(=O)c2c(C)cc(C)cc2C)C(F)(F)F)c1 (stereo not shown) [N-{1-[(3,5-Dimethylphenylamnino)methyl]-2,2,2-trifluoroethyl}-2,4,6-trimethyl-benzenesulfonamide]
13 | ≤ 100 nM | Cc1cc(C)c(S(=O)(=O)NC(CNc2cccc(Br)c2)C(F)(F)F)c(C)c1 (stereo not shown) [N-{1-[(3-Bromophenylamino)methyl]-2,2,2-trifluoroethyl}-2,4,6-trimethylbenzenesulfonamide]
14 | ≤ 100 nM | Cc1cc(C)c(S(=O)(=O)NC(COc2cc(Cl)ccc2C)C(F)(F)F)c(C)c1 (stereo not shown) [N-[1-(5-Chloro-2-methylphenoxymethyl)-2,2,2-trifluoroethyl]-2,4,6-trimethylbenzenesulfonamide]
15 | ≤ 100 nM | Cc1cc(C)c(S(=O)(=O)NC(CNc2cc(Cl)ccc2Cl)C(F)(F)F)c(C)c1 (stereo not shown) [N-{1-[(2,5-Dichlorophenylamino)methyl]-2,2,2-trifluoroethyl}-2,4,6-trimethylbenzenesulfonamide]
16 | ≤ 100 nM | CCN(CC(NS(=O)(=O)c1c(C)cc(C)cc1C)C(F)(F)F)c1ccccc1 (stereo not shown) [N-{1-[(Ethylphenylamino)methyl]-2,2,2-trifluoroethyl}-2,4,6-trimethylbenzenesulfonamide]
